Data taken from ChEMBL document CHEMBL1212927, “Synthesis and structure-activity relationships of novel 8a-aza-8a-homoerythromycin A ketolides” (2010).

Experiments:
Streptococcus pyogenes [1] = assay: Antibacterial activity against inducible macrolide-lincosamide-streptogramin B-resistant Streptococcus pyogenes B0543 by agar microdilution method; type: functional
Streptococcus pyogenes [2] = assay: Antibacterial activity against erythromycin A-susceptible Streptococcus pyogenes B0542 by agar microdilution method
Moraxella catarrhalis = assay: Antibacterial activity against Moraxella catarrhalis B0324 by agar microdilution method; type: functional
Staphylococcus aureus [3] = assay: Antibacterial activity against efflux-resistant Staphylococcus aureus B0331 by agar microdilution method; type: functional
Staphylococcus aureus [4] = assay: Antibacterial activity against erythromycin A-susceptible Staphylococcus aureus B0329 by agar microdilution method
Staphylococcus aureus [5] = assay: Antibacterial activity against inducible macrolide-lincosamide-streptogramin B-resistant Staphylococcus aureus B0538 by agar microdilution method; type: functional
Staphylococcus aureus [6] = assay: Antibacterial activity against constitutive macrolide-lincosamide-streptogramin B-resistant Staphylococcus aureus B0330 by agar microdilution method; type: functional
Streptococcus pneumoniae [7] = assay: Antibacterial activity against efflux-resistant Streptococcus pneumoniae B0326 by agar microdilution method; type: functional
Streptococcus pneumoniae [8] = assay: Antibacterial activity against erythromycin-susceptible Streptococcus pneumoniae B0541 by agar microdilution method
Streptococcus pyogenes [9] = assay: Antibacterial activity against constitutive macrolide-lincosamide-streptogramin B-resistant Streptococcus pyogenes B0544 by agar microdilution method; type: functional
Streptococcus pneumoniae [10] = assay: Antibacterial activity against constitutive macrolide-lincosamide-streptogramin B-resistant Streptococcus pneumoniae B0627 by agar microdilution method; type: functional
Streptococcus pyogenes [11] = assay: Antibacterial activity against efflux-resistant Streptococcus pyogenes B0545 by agar microdilution method; type: functional
Haemophilus influenzae = assay: Antibacterial activity against Haemophilus influenzae B0529 by agar microdilution method; type: functional

| Structure (SMILES) | MIC (Streptococcus pyogenes [1]) [µg/mL] | MIC (Streptococcus pyogenes [2]) [µg/mL] | MIC (Moraxella catarrhalis) [µg/mL] | MIC (Staphylococcus aureus [3]) [µg/mL] | MIC (Staphylococcus aureus [4]) [µg/mL] | MIC (Staphylococcus aureus [5]) [µg/mL] | MIC (Staphylococcus aureus [6]) [µg/mL] | MIC (Streptococcus pneumoniae [7]) [µg/mL] | MIC (Streptococcus pneumoniae [8]) [µg/mL] | MIC (Streptococcus pyogenes [9]) [µg/mL] | MIC (Streptococcus pneumoniae [10]) [µg/mL] | MIC (Streptococcus pyogenes [11]) [µg/mL] | MIC (Haemophilus influenzae) [µg/mL] |
| --- | --- | --- | --- | --- | --- | --- | --- | --- | --- | --- | --- | --- | --- |
| CC[C@H]1OC(=O)[C@H](C)C(=O)[C@H](C)[C@@H](O[C@@H]2O[C@H](C)C[C@H](N(C)C)[C@H]2O)[C@](C)(OCC(O)CNCCc2ccccn2)C[C@@H](C)NC(=O)[C@H](C)[C@@H](O)[C@]1(C)O (mixture of isomers) | 4 | 0.25 | 4 | 8 | 8 | 8 | > 64 | 16 | 1 | 32 | 8 | 4 | 32 |
| CC[C@H]1OC(=O)[C@H](C)C(=O)[C@H](C)[C@@H](O[C@@H]2O[C@H](C)C[C@H](N(C)C)[C@H]2O)[C@](C)(OCC(O)CNCCc2ccccc2)C[C@@H](C)NC(=O)[C@H](C)[C@@H](O)[C@]1(C)O (mixture of isomers) | 1 | 0.5 | 0.5 | 8 | 4 | 16 | > 64 | 16 | 0.25 | 16 | 8 | 1 | 16 |
| CC[C@H]1OC(=O)[C@H](C)C(=O)[C@H](C)[C@@H](O[C@@H]2O[C@H](C)C[C@H](N(C)C)[C@H]2O)[C@](C)(OCC(O)CNCCCCc2ccccc2)C[C@@H](C)NC(=O)[C@H](C)[C@@H](O)[C@]1(C)O (mixture of isomers) | 0.5 | 0.25 | ≤ 0.125 | 2 | 2 | 2 | > 64 | 4 | ≤ 0.125 | 8 | 1 | 0.5 | 8 |
| CC[C@H]1OC(=O)[C@H](C)C(=O)[C@H](C)[C@@H](O[C@@H]2O[C@H](C)C[C@H](N(C)C)[C@H]2O)[C@](C)(OCC(O)CN[C@H](C)Cc2ccc(OC)cc2)C[C@@H](C)NC(=O)[C@H](C)[C@@H](O)[C@]1(C)O (mixture of isomers) | 1 | 0.5 | 0.5 | 4 | 1 | 2 | > 64 | 16 | ≤ 0.125 | 8 | 2 | 1 | 16 |
| CC[C@H]1OC(=O)[C@H](C)C(=O)[C@H](C)[C@@H](O[C@@H]2O[C@H](C)C[C@H](N(C)C)[C@H]2O)[C@](C)(OCC(O)CNCCc2ccc([N+](=O)[O-])cc2)C[C@@H](C)NC(=O)[C@H](C)[C@@H](O)[C@]1(C)O (mixture of isomers) | 0.25 | ≤ 0.125 | ≤ 0.125 | 1 | ≤ 0.125 | 1 | > 64 | 0.5 | ≤ 0.125 | 1 | ≤ 0.125 | 0.25 | 1 |
| CC[C@H]1OC(=O)[C@H](C)C(=O)[C@H](C)[C@@H](O[C@@H]2O[C@H](C)C[C@H](N(C)C)[C@H]2O)[C@](C)(OCC(O)CN[C@H](C)Cc2ccc([N+](=O)[O-])cc2)C[C@@H](C)NC(=O)[C@H](C)[C@@H](O)[C@]1(C)O (mixture of isomers) | 0.5 | ≤ 0.125 | 0.25 | 2 | 0.5 | 2 | > 64 | 1 | ≤ 0.125 | 4 | 2 | 0.5 | 1 |
| CC[C@H]1OC(=O)[C@H](C)C(=O)[C@H](C)[C@@H](O[C@@H]2O[C@H](C)C[C@H](N(C)C)[C@H]2O)[C@](C)(OCC(O)CN2CCN(c3cccc(C(F)(F)F)c3)CC2)C[C@@H](C)NC(=O)[C@H](C)[C@@H](O)[C@]1(C)O (mixture of isomers) | 4 | ≤ 0.125 | 1 | 4 | 4 | 4 | > 64 | 4 | 0.5 | 16 | 16 | 2 | 16 |
